According to patent US9365588B2, “Benzoxazines as modulators of ion channels” (Vertex Pharmaceuticals Incorporated, priority 2011, dated 2016):

Molecular target: human NaV 1.7 (Homo sapiens, UniProt Q15858)
Assay: E-VIPR optical membrane potential assay with electrical stimulation
Assay type: cell-based
Details: sodium channel inhibition; read-out: Binned Activity Data (IC50)
Summary of the method: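 Membrane-potential read-out: background-subtracted 460 nm/580 nm ratio during a 9 s current-controlled stimulus, 400 Hz scan. Before stimulation, NaV1.7-HEK cells carried coumarin/oxonol dye and compound (final DMSO 0.625%) for 20–35 min at room temperature; tetracaine 125 μM served as positive control.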

human NaV 1.7, sequence (Q15858 whole entry): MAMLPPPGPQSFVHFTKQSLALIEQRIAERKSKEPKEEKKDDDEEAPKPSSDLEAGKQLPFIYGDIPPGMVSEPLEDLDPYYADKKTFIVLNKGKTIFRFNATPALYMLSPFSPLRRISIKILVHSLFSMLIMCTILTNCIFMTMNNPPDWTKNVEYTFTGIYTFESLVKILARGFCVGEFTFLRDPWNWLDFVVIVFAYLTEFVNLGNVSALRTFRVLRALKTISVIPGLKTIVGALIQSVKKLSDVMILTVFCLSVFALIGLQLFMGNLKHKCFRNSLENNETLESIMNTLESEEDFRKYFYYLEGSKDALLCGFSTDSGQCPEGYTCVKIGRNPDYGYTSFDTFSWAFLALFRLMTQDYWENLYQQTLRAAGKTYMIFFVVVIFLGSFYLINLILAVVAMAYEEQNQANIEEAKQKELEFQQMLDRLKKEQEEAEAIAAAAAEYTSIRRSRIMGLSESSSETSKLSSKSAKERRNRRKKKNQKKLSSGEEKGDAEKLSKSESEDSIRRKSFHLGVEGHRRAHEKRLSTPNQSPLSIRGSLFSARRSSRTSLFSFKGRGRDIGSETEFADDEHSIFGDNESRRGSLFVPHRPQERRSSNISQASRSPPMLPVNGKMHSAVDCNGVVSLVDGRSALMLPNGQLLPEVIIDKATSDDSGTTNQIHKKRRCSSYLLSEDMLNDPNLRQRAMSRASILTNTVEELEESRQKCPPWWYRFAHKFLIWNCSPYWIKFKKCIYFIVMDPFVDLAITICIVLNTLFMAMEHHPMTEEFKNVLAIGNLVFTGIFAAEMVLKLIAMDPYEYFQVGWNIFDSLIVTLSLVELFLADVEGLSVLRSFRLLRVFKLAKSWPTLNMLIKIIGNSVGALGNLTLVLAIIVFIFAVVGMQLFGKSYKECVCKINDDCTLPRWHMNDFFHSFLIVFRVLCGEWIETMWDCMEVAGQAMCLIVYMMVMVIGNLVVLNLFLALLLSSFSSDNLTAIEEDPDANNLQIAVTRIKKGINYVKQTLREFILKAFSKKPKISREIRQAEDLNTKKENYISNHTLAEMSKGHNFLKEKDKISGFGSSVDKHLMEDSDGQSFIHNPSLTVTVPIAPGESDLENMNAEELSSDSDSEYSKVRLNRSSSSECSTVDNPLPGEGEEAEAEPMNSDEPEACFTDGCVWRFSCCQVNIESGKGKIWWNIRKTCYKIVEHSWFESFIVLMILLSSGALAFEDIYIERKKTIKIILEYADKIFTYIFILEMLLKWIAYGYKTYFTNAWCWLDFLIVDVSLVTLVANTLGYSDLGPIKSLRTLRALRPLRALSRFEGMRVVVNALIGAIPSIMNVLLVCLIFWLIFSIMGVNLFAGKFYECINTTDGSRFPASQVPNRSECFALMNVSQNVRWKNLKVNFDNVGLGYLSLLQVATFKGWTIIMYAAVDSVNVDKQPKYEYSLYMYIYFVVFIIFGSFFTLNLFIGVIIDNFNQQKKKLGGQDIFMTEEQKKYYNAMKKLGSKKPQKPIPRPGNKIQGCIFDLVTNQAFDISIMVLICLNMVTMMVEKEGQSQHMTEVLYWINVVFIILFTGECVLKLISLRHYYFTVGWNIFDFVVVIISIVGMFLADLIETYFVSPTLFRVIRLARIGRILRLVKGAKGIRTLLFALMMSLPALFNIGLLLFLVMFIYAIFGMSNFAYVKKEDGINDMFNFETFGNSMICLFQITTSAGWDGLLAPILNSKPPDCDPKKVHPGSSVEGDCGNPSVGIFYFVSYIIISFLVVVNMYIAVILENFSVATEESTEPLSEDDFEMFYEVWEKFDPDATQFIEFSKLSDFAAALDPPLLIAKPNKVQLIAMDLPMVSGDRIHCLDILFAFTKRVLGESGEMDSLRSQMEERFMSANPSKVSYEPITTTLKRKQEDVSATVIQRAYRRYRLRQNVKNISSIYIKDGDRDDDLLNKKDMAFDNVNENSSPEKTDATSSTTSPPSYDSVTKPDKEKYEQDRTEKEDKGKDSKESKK

| Compound | IC50 [µM] |
| --- | --- |
| Cn1cc2c(n1)-c1ccccc1OC21CCN(C(=O)c2ccc(C(C)(C)O)c(CO)c2)CC1 [Compound 425] | > 5 |
| Cn1ncc2c1-c1ccccc1OC21CCN(C(=O)c2ccc3[nH]ncc3c2)CC1 [Compound 444] | > 5 |
| CCOc1cccc(C(=O)N2CCC3(CC2)Oc2ccccc2-n2c3ccc2S(C)(=O)=O)c1F [Compound 445] | 2 to 5 |
| CN(C)C(=O)c1ccccc1C(=O)N1CCC2(CC1)Oc1ccccc1-c1c2cnn1C [Compound 448] | 2 to 5 |
| CCc1ccc(C(=O)N2CCC3(CC2)Oc2cc(CN(C)C)ccc2-n2cccc23)cc1OC [Compound 454] | 2 to 5 |
| CC(C)(O)c1ccc(C(=O)N2CCC3(CC2)Oc2ccccc2-n2c(C(F)(F)F)ccc23)cn1 [Compound 455] | > 5 |
| Cc1cc(C(=O)N2CCC3(CC2)Oc2ccccc2-n2c(C#N)ccc23)ccc1OCC(=O)O [Compound 462] | 2 to 5 |
| COCCOc1ccc(C(=O)N2CCC3(CC2)Oc2ccccc2-c2c3cnn2CCOC)cc1OC [Compound 469] | 2 to 5 |
| COc1ccc(C(=O)N2CCC3(CC2)Oc2ccccc2-c2c3cnn2C)c(O)c1 [Compound 470] | 2 to 5 |
| COc1cc(OC)c(C(=O)N2CCC3(CC2)Oc2ccccc2-n2cccc23)cc1CO [Compound 474] | 2 to 5 |
| COc1ccc(C(=O)N2CCC3(CC2)Oc2cc(F)ccc2-n2c(C#N)ccc23)cc1C(F)(F)F [Compound 479] | > 5 |
| CCc1ccc(C(=O)N2CCC3(CC2)Oc2cc(Cl)ccc2-n2cccc23)cc1O [Compound 489] | 2 to 5 |
| Cc1cccc(C(=O)N2CCC3(CC2)Oc2ccccc2-c2c3cnn2C)c1 [Compound 491] | > 5 |
| Cn1ncc2c1-c1ccccc1OC21CCN(C(=O)c2ccc(OCCO)cc2)CC1 [Compound 496] | > 5 |
| CN(C)c1cc(C(=O)N2CCC3(CC2)Oc2ccccc2-c2c3cnn2C)ccn1 [Compound 499] | 2 to 5 |
| CC(C)NS(=O)(=O)c1ccc(C(=O)N2CCC3(CC2)Oc2ccccc2-c2nn(C)cc23)cc1 [Compound 501] | ≤ 2 |

| Compound | IC50 [µM] |
| --- | --- |
| Cc1ccc(C(=O)N2CCC3(CC2)Oc2cc(Cl)ccc2-n2cccc23)c(=O)n1C [Compound 502] | ≤ 2 |
| Cc1nc2ccc(C(=O)N3CCC4(CC3)Oc3ccccc3-n3c(C(F)(F)F)ccc34)cc2s1 [Compound 503] | ≤ 2 |
| CS(=O)(=O)c1ccc(C(=O)N2CCC3(CC2)Oc2ccccc2-n2c(C#N)ccc23)cc1C(F)(F)F [Compound 504] | ≤ 2 |
| O=C(c1ccc2nc(Cl)sc2c1)N1CCC2(CC1)Oc1ccccc1-n1c(C(F)(F)F)ccc12 [Compound 505] | 2 to 5 |
| Cn1ncc2c1-c1ccccc1OC21CCN(C(=O)c2ccc(C(C)(C)O)cc2)CC1 [Compound 506] | ≤ 2 |
| COc1cc(C(=O)N2CCC3(CC2)Oc2ccccc2-c2c3cnn2C)ccc1OCC(N)=O [Compound 507] | > 5 |
| CC(C)S(=O)(=O)c1ccc(C(=O)N2CCC3(CC2)Oc2ccccc2-n2c(F)ccc23)cc1 [Compound 508] | ≤ 2 |
| Cc1cc(C(=O)N2CCC3(CC2)Oc2ccccc2-n2c(C#N)ccc23)ccc1S(C)(=O)=O [Compound 509] | ≤ 2 |
| CCc1ccc(C(=O)N2CCC3(CC2)Oc2cc(C#N)ccc2-n2cccc23)cc1OC [Compound 511] | ≤ 2 |
| COc1cc(C(=O)N2CCC3(CC2)Oc2cc(Cl)ccc2-n2cccc23)ccc1C1CC1 [Compound 512] | ≤ 2 |
| CS(=O)(=O)c1cccc(C(=O)N2CCC3(CC2)Oc2cc(Cl)ccc2-n2cccc23)c1 [Compound 513] | ≤ 2 |
| CC(=O)NCc1ccc2n1-c1ccccc1OC21CCN(C(=O)c2ccc(OC(C)C)c(C)c2)CC1 [Compound 514] | ≤ 2 |
| Cn1ncc2c1-c1ccccc1OC21CCN(C(=O)c2ccc(OC(F)F)cc2OC(F)F)CC1 [Compound 515] | ≤ 2 |
| Cc1c(CO)cccc1C(=O)N1CCC2(CC1)Oc1ccccc1-n1c(C#N)ccc12 [Compound 516] | ≤ 2 |
| CC(C)Oc1ccc(C(=O)N2CCC3(CC2)Oc2ccccc2-n2cccc23)cc1C(N)=O [Compound 517] | ≤ 2 |

Continued, values first:

| IC50 [µM] | Compound |
| --- | --- |
| ≤ 2 | CC(C)CS(=O)(=O)c1ccc(C(=O)N2CCC3(CC2)Oc2ccccc2-c2c3cnn2C)cc1 [Compound 423] |
| ≤ 2 | CC(C)(O)c1ccc(C(=O)N2CCC3(CC2)Oc2ccccc2-n2c(C(F)(F)F)ccc23)cc1F [Compound 424] |
| ≤ 2 | Cc1cc(S(=O)(=O)C(C)C)ccc1C(=O)N1CCC2(CC1)Oc1ccccc1-n1c(C#N)ccc12 [Compound 426] |
| ≤ 2 | COc1cc(C(=O)N2CCC3(CC2)Oc2ccccc2-c2c3cnn2C)ccc1O[C@@H]1CCOC1 [Compound 427] |
| ≤ 2 | COc1cc(C(=O)N2CCC3(CC2)Oc2ccccc2-c2c3cnn2C)ccc1C(C)(C)C [Compound 429] |
| ≤ 2 | CC(C)Oc1ccccc1C(=O)N1CCC2(CC1)Oc1ccccc1-c1c2cnn1C [Compound 430] |
| ≤ 2 | CC(C)S(=O)(=O)c1ccc(C(=O)N2CCC3(CC2)Oc2cc(CO)ccc2-n2c(C#N)ccc23)cc1 [Compound 431] |
| ≤ 2 | COc1ccc(C(=O)N2CCC3(CC2)Oc2ccccc2-c2c3cnn2C)cc1C [Compound 433] |
| ≤ 2 | COc1cc(Cl)ccc1C(=O)N1CCC2(CC1)Oc1cc(Cl)ccc1-n1cccc12 [Compound 434] |
| ≤ 2 | COc1cc(C(=O)N2CCC3(CC2)Oc2ccc(F)cc2-c2nn(C)cc23)ccc1OC(C)C [Compound 435] |
| ≤ 2 | CC(C)CS(=O)(=O)c1ccc(C(=O)N2CCC3(CC2)Oc2ccccc2-n2c(C#N)ccc23)cc1 [Compound 436] |
| ≤ 2 | COc1cc(C(=O)N2CCC3(CC2)Oc2ccccc2-n2cccc23)ccc1O[C@@H]1CCC[C@H]1O [Compound 437] |
| ≤ 2 | COc1ccc(C(=O)N2CCC3(CC2)Oc2ccccc2-n2c(C(F)(F)F)ccc23)nc1 [Compound 438] |
| ≤ 2 | Cn1ncc2c1-c1ccccc1OC21CCN(C(=O)c2cccc3nccnc23)CC1 [Compound 439] |
| ≤ 2 | Cc1ccc2c(c1)OC1(CCN(C(=O)c3ccc(S(=O)(=O)C(C)C)cc3)CC1)c1ccc(C#N)n1-2 [Compound 440] |
| ≤ 2 | COc1cc(C(=O)N2CCC3(CC2)Oc2ccccc2-c2c3cnn2C)ccc1C1CC1 [Compound 442] |
| ≤ 2 | Cc1cc(C(=O)N2CCC3(CC2)Oc2ccccc2-n2cccc23)ccc1C(C)(C)O [Compound 443] |
| ≤ 2 | CCn1ncc2c1-c1cc(F)ccc1OC21CCN(C(=O)c2ccccc2OC(F)F)CC1 [Compound 446] |
| ≤ 2 | Cc1cc(C(C)(C)O)ccc1C(=O)N1CCC2(CC1)Oc1ccccc1-c1c2cnn1C [Compound 447] |
| ≤ 2 | COC[C@@H](C)Oc1ccc(C(=O)N2CCC3(CC2)Oc2ccccc2-n2cccc23)cc1OC [Compound 449] |
| ≤ 2 | Cn1ncc2c1-c1ccccc1OC21CCN(C(=O)c2ccccc2OC(F)(F)F)CC1 [Compound 452] |
| ≤ 2 | Cc1cc(C(=O)N2CCC3(CC2)Oc2cc(Cl)ccc2-n2cccc23)ccc1C#N [Compound 453] |
| ≤ 2 | CCS(=O)(=O)c1ccc(C(=O)N2CCC3(CC2)Oc2ccccc2-n2c(C(F)(F)F)ccc23)cc1 [Compound 456] |

| IC50 [µM] | Compound |
| --- | --- |
| ≤ 2 | COc1cccc2c(C(=O)N3CCC4(CC3)Oc3ccccc3-c3c4cnn3C)c[nH]c12 [Compound 460] |
| ≤ 2 | COc1cccc2[nH]cc(C(=O)N3CCC4(CC3)Oc3ccccc3-c3c4cnn3C)c12 [Compound 463] |
| ≤ 2 | CC(C)Oc1ccc(C(=O)N2CCC3(CC2)Oc2ccccc2-c2c3cnn2C)cc1 [Compound 464] |
| ≤ 2 | COc1cc(C)ccc1C(=O)N1CCC2(CC1)Oc1ccccc1-c1c2cnn1C [Compound 465] |
| ≤ 2 | COc1cc(C(=O)N2CCC3(CC2)Oc2ccccc2-n2cccc23)ccc1OCCCO [Compound 466] |
| ≤ 2 | Cn1ncc2c1-c1ccc(F)cc1OC21CCN(C(=O)c2ccccc2OC(F)(F)F)CC1 [Compound 468] |
| ≤ 2 | O=C(c1cccnc1Oc1ccc(F)cc1)N1CCC2(CC1)Oc1ccccc1-n1c(C(F)(F)F)ccc12 [Compound 472] |
| ≤ 2 | Cn1ncc2c1-c1ccccc1OC21CCN(C(=O)c2ccc(CC(C)(C)O)cc2)CC1 [Compound 473] |
| ≤ 2 | COc1ccc(F)c(C(=O)N2CCC3(CC2)Oc2cc(Cl)ccc2-n2cccc23)c1 [Compound 475] |
| ≤ 2 | COc1ccc(F)cc1C(=O)N1CCC2(CC1)Oc1ccccc1-c1c2cnn1C [Compound 476] |
| ≤ 2 | COc1ccc(C(=O)N2CCC3(CC2)Oc2ccccc2-n2cccc23)cc1C(F)(F)F [Compound 477] |
| ≤ 2 | CCOc1cccc(C(=O)N2CCC3(CC2)Oc2cc(Cl)ccc2-n2cccc23)c1 [Compound 478] |
| ≤ 2 | COc1ccc2c(c1)-c1c(cnn1C)C1(CCN(C(=O)c3ccccc3OC(F)F)CC1)O2 [Compound 480] |
| ≤ 2 | CC(C)(C)S(=O)(=O)c1ccc(C(=O)N2CCC3(CC2)Oc2ccccc2-n2c(C(F)(F)F)ccc23)cc1 [Compound 483] |
| ≤ 2 | COc1cc(C(F)(F)F)ccc1C(=O)N1CCC2(CC1)Oc1cc(Cl)ccc1-n1cccc12 [Compound 484] |
| ≤ 2 | CCOc1cccc(C(=O)N2CCC3(CC2)Oc2ccccc2-n2c(C#N)ccc23)c1F [Compound 485] |
| ≤ 2 | Cn1cc2c(n1)-c1cc(F)ccc1OC21CCN(C(=O)c2ccc(C(C)(C)O)cc2)CC1 [Compound 486] |
| ≤ 2 | COc1cccc2c1c(C(=O)N1CCC3(CC1)Oc1ccccc1-c1c3cnn1C)cn2C [Compound 487] |
| ≤ 2 | Cc1cc(C(=O)N2CCC3(CC2)Oc2cccc(C)c2-n2c(C#N)ccc23)ccc1OC(C)C [Compound 490] |
| ≤ 2 | CNS(=O)(=O)c1ccc(C(=O)N2CCC3(CC2)Oc2ccccc2-c2c3cnn2C)cc1 [Compound 494] |
| ≤ 2 | COc1cc(C(=O)N2CCC3(CC2)Oc2cc(Cl)ccc2-n2cccc23)ccc1C(C)(C)OC [Compound 497] |
| ≤ 2 | Cc1cc(C(=O)N2CCC3(CC2)Oc2ccccc2-c2[nH]ncc23)ccc1OC(C)C [Compound 500] |
